Results reported in article PMC11653243, “Enhancing Phototoxicity in BODIPY‐Perylene Charge Transfer Dyads by Combined Iodination and Mesylation” (Chemistry (Weinheim an Der Bergstrasse, Germany), 2024).
“And” between values parts separate entries of the source, which are not always exact repeats. Identical values can stand only once.

Columns and labels:
MCF‐7 spheroids [1] = experiment: Spheroid phototoxicity, 470 nm LED, CellTiter-Glo 3D; assay type: cell-based; conditions: MCF‐7 3D (spheroids); for IC50: Homo sapiens, MCF7, light or radiation study, 470 nm LED, 5±0.54 J/cm^2 (2.2 mW/cm^2 for 0.5 h); for Photo Index (PI), ratio of dark IC50 to light IC50: 5 J/cm^2, 470 nm LED
Method: (§1) 3D Cell Studies: Toxicity Assays
(§2) Spheroids were seeded in a clear BIOFLOAT™ round bottom 96 well plate (Sarstedt) at 2x10^4 cells per well, centrifuged using the […] for 5 minutes at 700 rpm and allowed to grow and compact for 96 hours. A 2X concentrated solution of B2P, B2PI, MB2P or MB2PI was added in a 1:1 ratio (BODIPY:media) to each well of the 96 well plate, which contained 50 µL phenol red free media, and incubated for 24 h. Prior to irradiation 90% of the media/Ru solution was removed, replaced with fresh phenol red media to dilute the remaining BODIPY (multiple dilution steps, more required for 15 µM and above), and brought to a total volume of 100 µL. Phototoxicity studies in […] spheroids were performed as per the cell monolayer protocol with an irradiation dose of 5 J/cm2 using a 470 nm LED.
(§3) Control studies with untreated spheroids confirmed 17 J/cm2 irradiation dose was toxic to spheroids, however the spheroids remained viable after 5 J/cm2 irradiation. CellTiter-Glo 3D cell viability assay (Promega) was used to assess spheroid viability and performed as per the manufacturer’s protocol, where the CellTiter-Glo 3D reagent was added to the spheroid wells

MCF‐7 cells [2] = experiment: Dark toxicity, 24 h, alamar blue assay; assay type: cell-based; conditions: Homo sapiens, MCF7, light or radiation study, without irradiation, 24 h in the dark at 37 °C
Method: (§4) Typical of many BODIPY derivatives, the BODIPY's presented in this work are insoluble in aqueous media, including PBS, and thus the main stock solutions (2–3 mM) were prepared in 100 % DMSO and diluted in media immediately before treating the cells. The maximum concentration for dark toxicity was set at 50 μM to keep the concentration of DMSO ≤1 % (v/v) to maintain cell health. As a result, it was not possible to determine an exact dark IC50 value as concentrations above 50 μM demanded DMSO concentrations that would affect the viability of the cells. Dietzek‐Ivanšić et al previously reported on the effect of DMSO on MCF‐7 cell viability, where cell viability remained high (95 %) in cells treated with 1 % DMSO in cell culture media for 24 h, whereas only 40 % of cells remained viable after treatment with 3.8 % DMSO. Working stocks in cell culture media remained stable within the incubation times used for cellular studies i. e. up to 24 h.[25]
(§5) Dark‐ and photo‐toxicity studies were performed by seeding CHO and MCF‐7 cells in clear 96‐well plates (Nunc) and treating with varying concentrations of B2P, MB2P, B2PI and MB2PI. Phototoxicity experiments were carried out using a 470 nm LED. For hypoxic phototoxicity studies, hypoxia was mimicked by adding CoCl2 to the cells prior to irradiation. Cell viability was determined using the alamar blue assay and absorbance measured with a BMG LABTECH CLARIOstar plate reader. […]
(§6) For 24 h dark toxicity studies, 50, 10, 5 and 1 µM stock concentrations of B2P, B2PI, MB2P and MB2PI were prepared in media to a final DMSO concentration of ≤1%. 100 µL of each concentration was added to the wells in triplicate and the plates incubated for 24 h in the dark at 37°C. Cell viability of all plate-based studies was assessed using the alamar blue assay. A 10% Resazurin-media solution (alamarBlue, Invitrogen) was added to the wells and incubated for 5 h in the absence of light. Absorbance was measured using a BMG LABTECH CLARIOstar plate reader at 570 nm and 600 nm (corrected for background subtraction). Cell viability is presented as a percentage (%) compared to untreated control wells. Plates were performed in triplicate. […]

CHO cells [3] = experiment: Phototoxicity, 470 nm LED, alamar blue assay; assay type: cell-based, Chinese Hamster; conditions: 17 J/cm^2, 470 nm LED
Method: (§7) The phototoxicity of the BODIPY's were assessed to compare the light induced toxicity of the iodinated compounds with their non‐iodinated counterparts. CHO and MCF‐7 cells were treated with B2P, B2PI, MB2P, and MB2PI in a concentration range from 0.10–1 μM for 17 h, the wells were decanted and filled with 100 μL phenol red free media prior to irradiation with a 470 nm LED (17 J/cm^2). Cell viability was determined using the alamar blue cell viability assay and % viability was calculated relative to untreated control wells.
as §5
(§8) For 24 h dark toxicity studies, 50, 10, 5 and 1 µM stock concentrations of B2P, B2PI, MB2P and MB2PI were prepared in media to a final DMSO concentration of ≤1%. 100 µL of each concentration was added to the wells in triplicate and the plates incubated for 24 h in the dark at 37°C. Cell viability of all plate-based studies was assessed using the alamar blue assay. A 10% Resazurin-media solution (alamarBlue, Invitrogen) was added to the wells and incubated for 5 h in the absence of light. Absorbance was measured using a BMG LABTECH CLARIOstar plate reader at 570 nm and 600 nm (corrected for background subtraction). Cell viability is presented as a percentage (%) compared to untreated control wells. Plates were performed in triplicate.
(§9) Phototoxicity and dark control plates were performed by incubating CHO or MCF-7 cells with B2P, B2PI, MB2P and MB2PI for 17 h to allow uptake, emptying the wells, replacing with phenol red free media, and irradiating at a total dose of 17 ± 1.64 J/cm2 (2 h at 2.37 ± 0.23 mW/cm2) using a 470 nm LED (TeleOpto LEDA-X LED driver and array). Control plates were incubated in the dark during the irradiation period (2 h). After irradiation, the cells were incubated in the dark overnight to allow for cell recovery. Irradiation conditions were tested on untreated cells to confirm cells remained viable at this dose before any experiments were performed and each phototoxicity plate included untreated test wells for cell viability comparison. Viability was determined using the alamar blue assay as per the cytotoxicity

MCF‐7 spheroids [4] = experiment: Spheroid dark toxicity, CellTiter-Glo 3D; assay type: cell-based; conditions: Homo sapiens, MCF7, light or radiation study; MCF‐7 3D (spheroids); without irradiation
Method: as §1, §2, §3

MCF‐7 cells [5] = experiment: Phototoxicity, 470 nm LED, alamar blue assay; assay type: cell-based; conditions: for Photo Index (PI), ratio of dark IC50 to light IC50: 17 J/cm^2, 470 nm LED; for IC50: Homo sapiens, MCF7, light or radiation study, 17 h incubation, 470 nm LED, 17±1.64 J/cm^2 (2.5 mW/cm^2 for 2 h)
Method: as §7, §5, §8, §9

CHO cells [6] = experiment: Dark toxicity, 24 h, alamar blue assay; assay type: cell-based, Chinese Hamster; conditions: Cricetulus griseus, light or radiation study, without irradiation, 24 h in the dark at 37 °C
Method: as §4, §5, §6

Structure (SMILES)	IC50 (MCF‐7 spheroids [1]) [µM]	Photo Index (PI), ratio of dark IC50 to light IC50 (MCF‐7 spheroids [1])	IC50 (MCF‐7 cells [2]) [µM]	Photo Index (PI), ratio of dark IC50 to light IC50 (CHO cells [3])	IC50 (MCF‐7 spheroids [4]) [µM]	Photo Index (PI), ratio of dark IC50 to light IC50 (MCF‐7 cells [5])	IC50 (CHO cells [6]) [µM]	IC50 (MCF‐7 cells [5]) [µM]
CC1=C(I)C(C)=[N+]2C1=C(c1ccccc1)c1c(C)c(-c3ccc4c5cccc6cccc(c7cccc3c74)c65)c(C)n1[B-]2(F)F [B2PI]	7.65	5.7	> 50	> 87	44 ± 3.84	> 213	> 50	–
CC1=CC(C)=[N+]2C1=C(c1ccccc1)c1c(C)c(-c3ccc4c5cccc6cccc(c7cccc3c74)c65)c(C)n1[B-]2(F)F [B2P]	6.91	6.6	> 50	> 76	46 ± 2.38	> 182	> 50	0.274
CC1=C(c2ccc3c4cccc5cccc(c6cccc2c63)c54)C(C)=[N+]2C1=C(c1c(C)cc(C)cc1C)c1c(C)c(I)c(C)n1[B-]2(F)F [MB2PI]	5.62	> 8.9 and > 8	> 50	> 132	> 50	> 218	> 50	0.229
CC1=C(c2ccc3c4cccc5cccc(c6cccc2c63)c54)C(C)=[N+]2C1=C(c1c(C)cc(C)cc1C)c1c(C)cc(C)n1[B-]2(F)F [MB2P]	6.26	> 8	> 50	> 64	> 50	> 109	> 50	0.457
